# How the values were obtained:
# Type in all cases: functional
# [1] = Antiproliferative activity against human UACC257 cells assessed as cell growth at 10^-4 M after 48 hrs by sulforhodamine B assay; conditions: UACC-257, 48 h, read-out: Activity
# [2] = test system: SR; assay: Antiproliferative activity against human SR cells assessed as cell growth at 10^-4 M after 48 hrs by sulforhodamine B assay; conditions: read-out: Activity
# [3] = test system: U-251; assay: Antiproliferative activity against human U251 cells assessed as cell growth at 10^-6 M after 48 hrs by sulforhodamine B assay; conditions: U-251, 48 h, read-out: Activity
# [4] = test system: 786-0; assay: Antiproliferative activity against human 786-0 cells assessed as cell growth at […] after 48 hrs by sulforhodamine B assay; conditions: 786-0, 48 h, read-out: Activity
# [5] = Antiproliferative activity against human PC3 cells assessed as cell growth at 10^-7 M after 48 hrs by sulforhodamine B assay; conditions: PC-3, 48 h, read-out: Activity
# [6] = test system: M14; assay: Antiproliferative activity against human M14 cells assessed as cell growth at 10^-8 M after 48 hrs by sulforhodamine B assay; conditions: M14, 48 h, read-out: Activity
# [7] = test system: EKVX; assay: Antiproliferative activity against human EKVX cells assessed as growth inhibition after 48 hrs by sulforhodamine B assay; conditions: for CC50: read-out: LC50 (the source's name)
# [8] = test system: SN12C; assay: Antiproliferative activity against human SN12C cells assessed as cell growth at 10^-8 M after 48 hrs by sulforhodamine B assay; conditions: read-out: Activity
# [9] = Antiproliferative activity against human SW620 cells assessed as cell growth at […] M after 48 hrs by sulforhodamine B assay; conditions: SW-620, 48 h, read-out: Activity
# [10] = test system: K562; assay: Antiproliferative activity against human K562 cells assessed as cell growth at 10^-7 M after 48 hrs by sulforhodamine B assay; conditions: K562, 48 h, read-out: Activity
# [11] = test system: K562; assay: Antiproliferative activity against human K562 cells assessed as cell growth at 10^-8 M after 48 hrs by sulforhodamine B assay; conditions: K562, 48 h, read-out: Activity
# [12] = test system: SK-MEL-28; assay: Antiproliferative activity against human SK-MEL-28 cells assessed as growth inhibition after 48 hrs by sulforhodamine B assay; conditions: SK-MEL-28, 48 h; for CC50: read-out: LC50 (the source's name)
# [13] = Antiproliferative activity against human RPMI8226 cells assessed as cell growth at 10^-7 M after 48 hrs by sulforhodamine B assay; conditions: RPMI-8226, 48 h, read-out: Activity
# [14] = Antiproliferative activity against human UO31 cells assessed as cell growth at 10^-7 M after 48 hrs by sulforhodamine B assay; conditions: UO-31, 48 h, read-out: Activity
# [15] = Antiproliferative activity against human BT549 cells assessed as growth inhibition after 48 hrs by sulforhodamine B assay; conditions: BT-549, 48 h; for CC50: read-out: LC50 (the source's name)
# [16] = test system: M14; assay: Antiproliferative activity against human M14 cells assessed as cell growth at 10^-6 M after 48 hrs by sulforhodamine B assay; conditions: M14, 48 h, read-out: Activity
# [17] = Antiproliferative activity against human TK10 cells assessed as growth inhibition after 48 hrs by sulforhodamine B assay; conditions: TK-10, 48 h; for CC50: read-out: LC50 (the source's name)
# [18] = Antiproliferative activity against human PC3 cells assessed as cell growth at 10^-8 M after 48 hrs by sulforhodamine B assay; conditions: PC-3, 48 h, read-out: Activity
# [19] = Antiproliferative activity against human UO31 cells assessed as cell growth at 10^-4 M after 48 hrs by sulforhodamine B assay; conditions: UO-31, 48 h, read-out: Activity
# [20] = test system: T47D; assay: Antiproliferative activity against human T47D cells assessed as cell growth at 10^-8 M after 48 hrs by sulforhodamine B assay; conditions: read-out: Activity
# [21] = Antiproliferative activity against human BT549 cells assessed as cell growth at 10^-6 M after 48 hrs by sulforhodamine B assay; conditions: BT-549, 48 h, read-out: Activity
# [22] = test system: SN12C; assay: Antiproliferative activity against human SN12C cells assessed as cell growth at 10^-6 M after 48 hrs by sulforhodamine B assay; conditions: read-out: Activity
# [23] = test system: SK-MEL-5; assay: Antiproliferative activity against human SK-MEL-5 cells assessed as cell growth at 10^-7 M after 48 hrs by sulforhodamine B assay; conditions: SK-MEL-5, 48 h, read-out: Activity
# [24] = test system: SN12C; assay: Antiproliferative activity against human SN12C cells assessed as cell growth at 10^-4 M after 48 hrs by sulforhodamine B assay; conditions: read-out: Activity
# [25] = Antiproliferative activity against human IGROV1 cells assessed as cell growth at 10^-8 M after 48 hrs by sulforhodamine B assay; conditions: IGROV-1, 48 h, read-out: Activity
# [26] = test system: A498; assay: Antiproliferative activity against human A498 cells assessed as growth inhibition after 48 hrs by sulforhodamine B assay; conditions: A498, 48 h
# [27] = Antiproliferative activity against human SKOV3 cells assessed as cell growth at 10^-6 M after 48 hrs by sulforhodamine B assay; conditions: SK-OV-3, 48 h, read-out: Activity
# [28] = Antiproliferative activity against human OVCAR4 cells assessed as cell growth at 10^-6 M after 48 hrs by sulforhodamine B assay; conditions: OVCAR-4, 48 h, read-out: Activity
# [29] = Antiproliferative activity against human LOXIMVI cells assessed as cell growth at 10^-8 M after 48 hrs by sulforhodamine B assay; conditions: LOX IMVI, read-out: Activity
# [30] = Antiproliferative activity against human Hs 578T cells assessed as cell growth at 10^-4 M after 48 hrs by sulforhodamine B assay; conditions: read-out: Activity
# [31] = Antiproliferative activity against human HCT15 cells assessed as cell growth at 10^-6 M after 48 hrs by sulforhodamine B assay; conditions: HCT-15, 48 h, read-out: Activity
# [32] = test system: SR; assay: Antiproliferative activity against human SR cells assessed as growth inhibition after 48 hrs by sulforhodamine B assay
# [33] = test system: 786-0; assay: Antiproliferative activity against human 786-0 cells assessed as cell growth at 10^-7 M after 48 hrs by sulforhodamine B assay; conditions: 786-0, 48 h, read-out: Activity
# [34] = Antiproliferative activity against human SF295 cells assessed as cell growth at 10^-7 M after 48 hrs by sulforhodamine B assay; conditions: SF-295, 48 h, read-out: Activity
# [35] = Antiproliferative activity against human OVCAR8 cells assessed as cell growth at 10^-6 M after 48 hrs by sulforhodamine B assay; conditions: OVCAR-8, 48 h, read-out: Activity
# [36] = Antiproliferative activity against human SF295 cells assessed as cell growth at 10^-8 M after 48 hrs by sulforhodamine B assay; conditions: SF-295, 48 h, read-out: Activity
# [37] = Antiproliferative activity against human SNB75 cells assessed as cell growth at 10^-4 M after 48 hrs by sulforhodamine B assay; conditions: SNB-75, 48 h, read-out: Activity
# [38] = Antiproliferative activity against human MOLT4 cells assessed as cell growth at 10^-8 M after 48 hrs by sulforhodamine B assay; conditions: MOLT-4, 48 h, read-out: Activity
smiles,measurement,setting,value
CNC(=O)c1cc(Oc2ccc3nc(NC(=O)Nc4cc(C(F)(F)F)cc(C(F)(F)F)c4)sc3c2)ccn1,growth at 100 µM,[1],-94%
same,growth at 100 µM,[2],-53%
same,growth at 1 µM,[3],51%
same,growth at 100 µM,[4],-94%
same,growth at 0.1 µM,[5],99%
same,growth at 0.01 µM,[6],91%
same,GI50,[7],1.29 µM
same,TGI,[7],4.56 µM
same,CC50,[7],59.3 µM
same,growth at 0.01 µM,[8],99%
same,growth at 0.01 µM,[9],102%
same,growth at 0.1 µM,[10],97%
same,growth at 0.01 µM,[11],104%
same,GI50,[12],1.29 µM
same,TGI,[12],2.93 µM
same,CC50,[12],6.62 µM
same,growth at 0.1 µM,[13],108%
same,growth at 0.1 µM,[14],94%
same,GI50,[15],1.34 µM
same,TGI,[15],3.07 µM
same,CC50,[15],7.05 µM
same,growth at 1 µM,[16],77%
same,GI50,[17],1.67 µM
same,TGI,[17],3.35 µM
same,CC50,[17],6.72 µM
same,growth at 0.01 µM,[18],101%
same,growth at 100 µM,[19],-79%
same,growth at 0.01 µM,[20],85%
same,growth at 1 µM,[21],67%
same,growth at 1 µM,[22],80%
same,growth at 0.1 µM,[23],99%
same,growth at 100 µM,[24],-60%
same,growth at 0.01 µM,[25],103%
same,GI50,[26],1.02 µM
same,LC50 (concentration killing 50% of cells),[26],5.97 µM
same,TGI,[26],2.47 µM
same,growth at 1 µM,[27],72%
same,growth at 1 µM,[28],49%
same,growth at 0.01 µM,[29],93%
same,growth at 100 µM,[30],-38%
same,growth at 1 µM,[31],76%
same,GI50,[32],0.514 µM
same,LC50,[32],31.6 µM
same,TGI,[32],2.6 µM
same,growth at 0.1 µM,[33],99%
same,growth at 0.1 µM,[34],92%
same,growth at 1 µM,[35],70%
same,growth at 0.01 µM,[36],87%
same,growth at 100 µM,[37],-75%
CNC(=O)c1cc(Oc2ccc3nc(NC(=O)c4cc(C(F)(F)F)cc(C(F)(F)F)c4)sc3c2)ccn1,growth at 100 µM,[1],-45%
same,growth at 100 µM,[2],-23%
same,growth at 1 µM,[3],99%
same,growth at 100 µM,[4],-71%
same,growth at 0.1 µM,[5],94%
same,growth at 0.01 µM,[6],99%
same,GI50,[7],3.43 µM
same,TGI,[7],23.3 µM
same,CC50,[7],> 100 µM
same,growth at 0.01 µM,[8],98%
same,growth at 0.01 µM,[9],97%
same,growth at 0.1 µM,[10],98%
same,growth at 0.01 µM,[11],103%
same,GI50,[12],3.76 µM
same,TGI,[12],43.7 µM
same,CC50,[12],> 100 µM
same,growth at 0.1 µM,[13],98%
same,growth at 0.1 µM,[14],86%
same,GI50,[15],3.05 µM
same,TGI,[15],12.4 µM
same,CC50,[15],> 100 µM
same,growth at 1 µM,[16],94%
same,GI50,[17],3.37 µM
same,TGI,[17],13.3 µM
same,CC50,[17],74.9 µM
same,growth at 0.01 µM,[18],96%
same,growth at 100 µM,[19],-51%
same,growth at 0.01 µM,[20],97%
same,growth at 1 µM,[21],92%
same,growth at 1 µM,[22],96%
same,growth at 0.1 µM,[23],96%
same,growth at 100 µM,[24],-53%
same,growth at 0.01 µM,[38],86%
same,growth at 0.01 µM,[25],106%
same,GI50,[26],1.45 µM
same,LC50 (concentration killing 50% of cells),[26],30.9 µM
same,TGI,[26],4.51 µM
same,growth at 1 µM,[27],90%
same,growth at 1 µM,[28],89%
same,growth at 0.01 µM,[29],97%
same,growth at 100 µM,[30],-42%
same,growth at 1 µM,[31],96%
same,GI50,[32],3.37 µM
same,LC50,[32],> 100 µM
same,TGI,[32],15 µM
same,growth at 0.1 µM,[33],90%
same,growth at 0.1 µM,[34],89%
same,growth at 1 µM,[35],90%
same,growth at 0.01 µM,[36],93%
same,growth at 100 µM,[37],-51%
CNC(=O)c1cc(Oc2ccc3nc(NC(=O)Nc4ccc(Cl)c(Cl)c4)sc3c2)ccn1,growth at 100 µM,[1],7%
same,growth at 100 µM,[2],50%
same,growth at 1 µM,[3],98%
same,growth at 100 µM,[4],-67%
same,growth at 0.1 µM,[5],100%
same,growth at 0.01 µM,[6],93%
same,GI50,[7],3.3 µM
same,TGI,[7],> 100 µM
same,CC50,[7],> 100 µM
same,growth at 0.01 µM,[8],102%
same,growth at 0.01 µM,[9],102%
same,growth at 0.1 µM,[10],98%
same,growth at 0.01 µM,[11],99%
same,GI50,[12],1.74 µM
same,TGI,[12],3.56 µM
same,CC50,[12],7.31 µM
same,growth at 0.1 µM,[13],107%
same,growth at 0.1 µM,[14],100%
same,GI50,[15],4.88 µM
same,TGI,[15],> 100 µM
same,CC50,[15],> 100 µM
same,growth at 1 µM,[16],97%
same,GI50,[17],3.46 µM
same,TGI,[17],9.26 µM
same,CC50,[17],> 100 µM
same,growth at 0.01 µM,[18],96%
same,growth at 100 µM,[19],-72%
same,growth at 0.01 µM,[20],102%
same,growth at 1 µM,[21],102%
same,growth at 1 µM,[22],102%
same,growth at 0.1 µM,[23],100%
same,growth at 100 µM,[24],9%
same,growth at 0.01 µM,[38],92%
same,growth at 0.01 µM,[25],99%
same,GI50,[26],2.93 µM
same,LC50 (concentration killing 50% of cells),[26],> 100 µM
same,TGI,[26],6.64 µM
same,growth at 1 µM,[27],117%
same,growth at 1 µM,[28],104%
same,growth at 0.01 µM,[29],95%
same,growth at 100 µM,[30],-22%
same,growth at 1 µM,[31],91%
same,GI50,[32],6.47 µM
same,LC50,[32],> 100 µM
same,TGI,[32],> 100 µM
same,growth at 0.1 µM,[33],100%
same,growth at 0.1 µM,[34],90%
same,growth at 1 µM,[35],103%
same,growth at 0.01 µM,[36],86%
same,growth at 100 µM,[37],-75%
